Test results as given in ChEMBL document CHEMBL5728659, “Macrocyclic immunomodulators” (2021).

Assay: Enzyme-Linked Immunosorbent Assay-ELISA: 96 Well plates were coated with 1 μg/mL of human PD-L1 (obtained from R&D) in PBS overnight at 4° C. The wells were then blocked with 2% BSA in PBS (W/V) with 0.05% TWEEN-20 for 1 hour at 37° C. The plates were washed 3 times with PBS/0.05% TWEEN-20 and the compounds were serial diluted (1:5) in dilution medium and added to the ELISA plates. Human PD-1 and biotin 0.3 μg/mL (ACRO Biosystems) were added and incubated for 1 hour at 37° C. then washed 3 times with PBS/0.05% TWEEN-20. A second block was performed with 2% BSA in PBS (W/V)/0.05% TWEEN-20 for 10 min at 37° C. and was washed 3 times with PBS/0.05% TWEEN-20. Streptavidin—HRP was added for 1 hour at 37° C. then washed 3 times with PBS/0.05% TWEEN-20. TMB substrate was added and reacted for 20 min at 37° C. A stop solution (2 N aqueous H2SO4) was added. The absorbance was read at 450 nm using a micro-plate spectrophotometer.
In the case of Cc1c(COc2cc3c(cc2Cl)CN[C@H](C(=O)O)CCCCNC(=O)c2cncc(c2)CO3)cccc1-c1cccc(OCCCCl)c1C, the IC50 was “in the range around 10200 nM”.
In the case of Cc1c(COc2cc3c(cc2Cl)CN[C@H](C(=O)O)COCCNC(=O)c2cncc(c2)CO3)cccc1-c1ccccc1, the IC50 was “in the range around 300 nM”.
In the case of Cc1c(COc2cc3c(cc2Cl)CN[C@H](CC(=O)O)CCCCNC(=O)c2cncc(c2)CO3)cccc1-c1ccccc1, the IC50 was “in the range around 300 nM”.
With Cc1c(COc2cc3c(cc2Cl)CN[C@H](C(=O)O)CCCNC(=O)c2cncc(c2)CO3)cccc1-c1ccccc1 the IC50 was “in the range around 300 nM”.
With Cc1c(COc2cc3c(cc2Cl)CN[C@@H](CO)C(=O)NCCNC(=O)c2cncc(c2)CO3)cccc1-c1ccccc1 the IC50 was “in the range around 300 nM”.
With O=C1NCCCC[C@@H](C(=O)O)NCc2cc(Cl)c(O[C@H]3CCc4c(-c5ccccc5F)cccc43)cc2OCc2cncc1c2 the IC50 was “in the range around 300 nM”.
With Cc1c(COc2cc3c(cc2Cl)CN[C@H](C(=O)O)CCCCNC(=O)CCCCO3)cccc1-c1ccccc1 the IC50 was “in the range around 300 nM”.
In the case of Cc1c(COc2cc3c(cc2Cl)CN[C@H](C(=O)O)CCCCNC(=O)c2cncc-3c2)cccc1-c1ccccc1, the IC50 was “in the range around 10200 nM”.
